Test results published in the supplement of paper PMC5579334.
± gives the standard deviation of the averaged measurements.

Experiments:
[1] = test system: HSC1 (primary human Schwann cells); test: drug sensitivity score (DSS, CellTox-Green cytotoxicity, 72 h) (DSS (dimensionless)); higher = more cytotoxic; extreme values may be limits of the assay
How it was run: (§1)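 For 72 h at 37 °C, MPNST cell lines and primary human Schwann cells were exposed in 384-well plates to five 10-fold compound dilutions. CellTox-Green, added before seeding at a final 1:1000 dilution, gave fluorescence from DNA released by disrupted cells. Signals were scaled to vehicle and positive-control wells, cultures failing plate quality control were left out, and four-parameter logistic fits were applied. Relative IC50 and drug sensitivity score were derived from the fits, with IC50 censored at the top concentration.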

HS-PSS [2] = test: as above
How it was run: as §1

STS26T [3] = test: as above
How it was run: as §1

S1507-2 [4] = test: as above
How it was run: as §1

ST8814 [5] = test: as above
How it was run: as §1

[6] = test system: HSC2 (primary human Schwann cells); test: as above
How it was run: as §1

[7] = test system: HSC1 (primary human Schwann cells); test: % inhibition of CellTiter-Glo viability at highest tested concentration (72 h), relative to DMSO and benzethonium chloride controls; higher = more inhibition
How it was run: (§2)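 After seeding 750–1000 cells per well of MPNST cell lines or primary human Schwann cells into 384-well plates preprinted with each compound at five concentrations in 10-fold steps, plates were kept 72 h at 37 °C, 5% CO2. Viability was read as CellTiter-Glo ATP luminescence relative to vehicle and positive-control wells, with duplicates averaged where present. The data were fitted with four-parameter logistic models. Drug sensitivity score and relative IC50, censored at the top concentration, derive from the fits, and percent inhibition refers to the top concentration.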

HS-PSS [8] = test: as above
How it was run: as §2

YST-1 [9] = test: as above
How it was run: as §2

HS-Sch-2 [10] = test: as above
How it was run: as §2

S462 [11] = test: as above
How it was run: as §2

STS26T [12] = test: as above
How it was run: as §2

S1507-2 [13] = test: as above
How it was run: as §2

ST8814 [14] = test: as above
How it was run: as §2

[15] = test system: HSC2 (primary human Schwann cells); test: as above
How it was run: as §2

[16] = test system: HSC1 (primary human Schwann cells); test: drug sensitivity score (DSS, CellTiter-Glo viability, 72 h) (DSS (dimensionless)); higher = more sensitive; extreme values may be limits of the assay
How it was run: as §2

HS-PSS [17] = test: as above
How it was run: as §2

YST-1 [18] = test: as above
How it was run: as §2

HS-Sch-2 [19] = test: as above
How it was run: as §2

S462 [20] = test: as above
How it was run: as §2

STS26T [21] = test: as above
How it was run: as §2

S1507-2 [22] = test: as above
How it was run: as §2

ST8814 [23] = test: as above
How it was run: as §2

[24] = test system: HSC2 (primary human Schwann cells); test: as above
How it was run: as §2

Structure (SMILES) | drug sensitivity score [1] | drug sensitivity score (HS-PSS [2]) | drug sensitivity score (STS26T [3]) | drug sensitivity score (S1507-2 [4]) | drug sensitivity score (ST8814 [5]) | drug sensitivity score [6] | % inhibition [7] [%] | % inhibition (HS-PSS [8]) [%] | % inhibition (YST-1 [9]) [%] | % inhibition (HS-Sch-2 [10]) [%] | % inhibition (S462 [11]) [%] | % inhibition (STS26T [12]) [%] | % inhibition (S1507-2 [13]) [%] | % inhibition (ST8814 [14]) [%] | % inhibition [15] [%] | drug sensitivity score [16] | drug sensitivity score (HS-PSS [17]) | drug sensitivity score (YST-1 [18]) | drug sensitivity score (HS-Sch-2 [19]) | drug sensitivity score (S462 [20]) | drug sensitivity score (STS26T [21]) | drug sensitivity score (S1507-2 [22]) | drug sensitivity score (ST8814 [23]) | drug sensitivity score [24]
C[C@@H]1CCN(C(=O)CC#N)C[C@@H]1N(C)c1ncnc2[nH]ccc12 [Tofacitinib] (max concentration tested 5000 nM) | 0 | 0 | 0 | 0.083 ± 0.12 | 0 | 0 | 11.7 | -4.37 | -2.9 | -3.98 | 17.1 ± 3.5 | 10.4 | 0.251 ± 0.54 | 6.57 | 25.1 | 3.18 | 0 | 0.89 | 0.89 | 1.27 ± 0.56 | 0.0007 | 0.398 ± 0.56 | 0 | 1.53
CN(C)CCN1C(=O)c2cccc3cc(N)cc(c23)C1=O [Amonafide] (max concentration tested 10000 nM) | 0 | 4.02 | 0.0609 | 2.18 ± 0.64 | 3.57 | 0.087 | 69.3 | 93.8 | 100 | 99.9 | 90.9 ± 2.4 | 78.7 | 90.4 ± 2 | 101 | 76.3 | 7.05 | 6.59 | 11.1 | 8.84 | 8.23 ± 0.65 | 5.83 | 8.84 ± 0.35 | 8.9 | 6.42
Nc1nc(NC2CC2)cc(-c2cccc(Cl)c2Cl)n1 [TH588] (max concentration tested 25000 nM) | 4.29 | 0 | 9.84 | 5.61 | 7.43 | 4.06 | 55 | 35.1 | 79.4 | 87.8 | 98.2 | 102 | 78.2 | 100 | 67 | 4.07 | 3.03 | 7.77 | 7.91 | 6.18 | 9.6 | 6.86 | 9.42 | 5.92
O=C1CCC(N2C(=O)c3ccccc3C2=O)C(=O)N1 (stereo not drawn) [Thalidomide] (max concentration tested 10000 nM) | 0 | 0 | 0 | 0 | 0 | 0 | 1.74 | 8.04 | 2.49 | 12.4 | -8.98 ± 4.2 | 2.86 | 13 ± 12 | 10.4 | 8.31 | 0 | 0 | 0 | 0.45 | 0 | 0 | 0.783 ± 1.1 | 0.0095 | 0
O=C(O)c1ccc(-c2c[nH]c3ncc(-c4ccccc4)cc23)cc1C1CCCC1 (max concentration tested 10000 nM) | 0 | 0 | 0 | 0.00895 ± 0.013 | 0 | 0 | 8.07 | 19.2 | 9.07 | 31 | 4.19 ± 1.2 | -4.89 | -2.03 ± 9.5 | 7.81 | 18.7 | 0 | 0.42 | 0 | 1.47 | 0 | 0 | 0 | 0 | 0.756
Cc1ccc(C(=O)N(CCCN)[C@@H](c2oc3cc(Cl)ccc3c(=O)c2Cc2ccccc2)C(C)C)cc1 (max concentration tested 100 nM) | 0 | 0 | 0 | 0 | 0 | 0 | 7.2 | 26.9 | 76 | 87.1 | -2.08 ± 8.3 | 2.24 | 5.6 ± 6.5 | 5.16 | -19.5 | 0 | 6.42 | 18.9 | 19 | 0 | 0 | 0.0057 ± 0.0081 | 0 | 0
COc1cccc2cc(-c3nc([C@H]4CC[C@H](C(=O)O)CC4)n4ncnc(N)c34)[nH]c12 [OSI-027] (max concentration tested 10000 nM) | 0 | 0 | 0 | 2.04 ± 1.4 | 0 | 0 | 84.8 | 26.6 | 78 | 49.1 | 58.2 ± 2.5 | 53.1 | 64.4 ± 4.5 | 53 | 80.9 | 10.7 | 0.84 | 9.46 | 2.33 | 7.41 ± 0.52 | 4.45 | 8.32 ± 1 | 5.6 | 8.56
